# Experimental data published in US11622946B2, “Uses of a carotenoid in the treatment or prevention of stress induced conditions” (GREENALTECH, S.L., priority 2016, dated 2023).
# Where two headings read alike, the source gives them in different places.
# How the values were obtained:
# [1] = molecular target: T1, human Gluocorticoid receptor (GR) (Homo sapiens, UniProt P04150); experiment: GR antagonist assay (GeneBLAzer beta-lactamase reporter, GR-UAS-bla HEK 293T cells, dexamethasone as agonist); type: cell-based; details: for antagonist effect on GR (in words) / GR inhibition: against dexamethasone; for GR inhibition: at 10 μM
# T1 construct: expressed in transfected cells; host or cells: GeneBLAzer UAS-bla HEK 293T
# T1 sequence (P04150 524-758 limits assumed): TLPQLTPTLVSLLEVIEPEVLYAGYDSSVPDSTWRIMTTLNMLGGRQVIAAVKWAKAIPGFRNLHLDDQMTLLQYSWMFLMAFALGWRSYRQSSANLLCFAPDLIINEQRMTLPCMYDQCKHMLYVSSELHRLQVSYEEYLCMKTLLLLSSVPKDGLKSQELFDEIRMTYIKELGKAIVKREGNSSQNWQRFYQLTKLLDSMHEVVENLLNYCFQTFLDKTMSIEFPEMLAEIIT
# Method: An antagonist assay for GR was performed.
# These cells stably express a beta-lactamase reporter gene under the transcriptional control of an upstream activator sequence (UAS). When an agonist binds to the LBD of the GAL4 (DBD)-GR (LBD) fusion protein, the protein binds to the UAS, resulting in expression of beta-lactamase.
# 32 μL of cell suspension is added to the wells and pre-incubated at 37° C./5% CO2 in a humidified incubator with compounds and control antagonist titration for 30 minutes. 4 μL of 10× control agonist. Dexamethasone at the pre-determined EC80 concentration is added to wells containing the control antagonist or compounds. The plate is incubated for 16-24 hours at 37° C./5% CO2 in a humidified incubator. 8 μL of 1 μM Substrate Loading Solution is added to each well and the plate is incubated for 2 hours at room temperature. The plate is read on a fluorescence plate reader.
# [2] = tested on: p53 in HaCat keratinocytes; experiment: p53 quantification by ELISA after hydrocortisone (Human Total p53 DuoSet IC ELISA); type: cell-based; details: compounds at 0.1 and 1 μM, 1 h before 10 μM hydrocortisone, 2 h
# Method: HaCat keratinocytes were cultured in DMEM medium supplemented with 10% FCS. […] Assays were performed with cells between 80% and 90% of confluence and with a cell viability above 90% (tested by trypan blue staining). 20000 cells per experimental condition were seeded in 24 well plates with 1 mL of medium for 24h. Culture medium was substituted for not supplemented DMEM and after a 24 hour incubation, compounds were added at 0.1 and 1 μM to assay wells. […] Cells were lysed in 100 μL of lysis buffer and 5 μg of total cell extract were used for the quantitative ELISA. Optical density was measured at 450 nm and background was subtracted.
# [3] = tested on: HaCat cell line; experiment: Hydrocortisone-induced DNA damage assay (HCS DNA Damage kit, phosphorylated H2AX); type: cell-based, human; details: compounds at 0.1 μM, 1 h before 10 μM hydrocortisone
# Method: HaCat cell line, a spontaneously transformed aneuploid immortal keratinocyte cell line from adult human skin was used. Keratinocytes were cultured in DMEM medium supplemented with 10% FCS. […] Assays were performed with cells between 80% and 90% of confluence and with a cell viability above 90% (tested by trypan blue staining). 20000 cells per experimental condition were seeded in 24 well plates with 1 mL of medium for 24 h. Culture medium was substituted for not supplemented DMEM and after a 24 hour incubation, compounds were added at 0.1 μM to assay wells. […] Plate was incubated for 30 min before the DNA extraction. DNA damage was quantified using the HCS DNA Damage kit (ThermoFisher®). “The HCS DNA Damage kit simultaneously and quantitatively measures two important cell-health parameters: DNA damage and cytotoxicity. DNA damage is detected using an antibody against phosphorylated H2AX (Ser139) which is induced in response to double-strand break (DSB) formation”. Plate was read using Fluoroscan at 355-460 nm for Hoechst (cell number) and 485-538 nm for the secondary antibody (DNA damage). Background is subtracted and relativized with values obtained from Hoechst staining in order to obtain the value of DNA damage relative to the cell count of each well. Results were normalized using the basal values.
# [4] = molecular target: T2, progesterone receptors (PR) (Homo sapiens, UniProt P06401); experiment: PR antagonist assay (GeneBLAzer beta-lactamase reporter, UAS-bla HEK 293T cells, R5020 as agonist); type: cell-based; details: for antagonist action on PR (in words): against promegestone (R5020)
# T2 sequence (P06401 679-933 limits assumed): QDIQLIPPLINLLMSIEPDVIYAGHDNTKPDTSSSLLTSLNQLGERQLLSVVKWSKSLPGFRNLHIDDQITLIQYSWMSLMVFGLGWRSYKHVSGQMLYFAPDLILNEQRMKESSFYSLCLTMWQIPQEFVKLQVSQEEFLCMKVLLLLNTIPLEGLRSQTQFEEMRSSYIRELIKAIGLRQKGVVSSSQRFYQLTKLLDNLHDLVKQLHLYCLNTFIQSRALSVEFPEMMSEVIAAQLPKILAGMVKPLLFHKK
# Method: An antagonist assay for PR was performed. In this assay, an engineered cell line (UAS-bla HEK 293T) expressing PR is used to test the action of two xanthophylls. The detection method consists in GeneBLAzer® technology, based on mammalian-optimized Beta-lactamase reporter gene (bla) combined with a FRET-enabled substrate.
# In FIG. 7, neoxanthin and fucoxanthin were tested against the agonist promegestone (R5020).
# [5] = tested on: triple negative breast adenocarcinoma cell line MDA-MB-231; experiment: Cytotoxicity by the MTT method; details: MDA-MB-231, 72 h, read-out: EC50 (cytotoxic effect)
# Method: For that purpose the cytotoxic effects (EC50) of fucoxanthin (063-06691, Wako Chemicals) alone and combined with paclitaxel (T1912, Sigma-Aldrich) on the triple negative breast adenocarcinoma cell line MDA-MB-231 (ECACC: 92020424) were assessed.
# In a first setup, MDA-MB-231 cells were seeded in 96 well plates with 100 μL of DMEM +10% FBS and incubated at 37° C., 5% CO2 and 90% humidity. After 24 hours, with a confluence and viability of between 80 and 90% as assessed by trypan blue test, cells were treated with serial dilutions (1:3) in DMEM+10% FBS of fucoxanthin solubilized in DMSO ranging from 100 μM to 15.2 nM.
# In a second setup, MDA-MB-231 cells were seeded in 96 well plates with 100 μL of DMEM +10% FBS and incubated at 37° C., 5% CO2 and 90% humidity. After 24 hours, with a confluence and viability of between 80 and 90% as assessed by trypan blue test, cells were treated with serial dilutions (1:3) of paclitaxel in DMEM+10% FBS ranging from 1 μM to 0.15 nM or with both the same concentrations of paclitaxel plus a fixed subtoxic concentration of fucoxanthin (1 μM) solubilized in DMSO (100 μM).
Compound,antagonist effect on GR (in words) [1],GR inhibition [1],p53 expression in the presence of hydrocortisone (in words) [2],protection of DNA from hydrocortisone-induced damage (in words) [3],antagonist action on PR (in words) [4],also measured
CC1=C(/C=C/C(C)=C/C=C/C(C)=C/C=C/C=C(C)/C=C/C=C(C)/C=C/C2=C(C)C(=O)[C@@H](O)CC2(C)C)C(C)(C)C[C@H](O)C1=O [astaxanthin],neither compounds exercise an antagonist effect on GR,,,,,
CC1=C(/C=C/C(C)=C/C=C/C(C)=C/C=C/C=C(C)/C=C/C=C(C)/C=C/C2=C(C)CCCC2(C)C)C(C)(C)CCC1 [beta-carotene],neither compounds exercise an antagonist effect on GR,,,,,
C\C(C=C=C1C(C)(C)C[C@H](O)C[C@@]1(C)O)=C/C=C/C(C)=C/C=C/C=C(C)/C=C/C=C(\C)C(=O)/C=C1\C(C)(C)C[C@H](O)C[C@@]1(C)O [iso-fucoxanthinol],,,,,,"maximum GR inhibition ([1]; at 10 mM (so in the source), against dexamethasone (FIG. 6)): 80%"
CC(=C/C=C/C(C)=C/C=C/C=C(C)/C=C/C=C(\C)C=C=C1C(C)(C)C[C@H](O)C[C@@]1(C)O)/C=C/[C@@]12O[C@]1(C)C[C@@H](O)CC2(C)C [neoxanthin],total antagonist,above 85%,increase p53 expression,capable of protecting DNA,None of them showed an important antagonist action,
"CC(=O)O[C@H]1C(=O)[C@@]2(C)[C@H]([C@H](OC(=O)c3ccccc3)[C@]3(O)C[C@H](OC(=O)[C@H](O)[C@@H](NC(=O)c4ccccc4)c4ccccc4)C(C)=C1C3(C)C)[C@]1(OC(C)=O)CO[C@@H]1C[C@@H]2O [paclitaxel, reference compound]",,,,,,EC50 ([5]; Homo sapiens): 0.0044 µM
fucoxanthin,parcial antagonist,50%,increase p53 expression,capable of protecting DNA,None of them showed an important antagonist action,"EC50 ([5]; MTT, fucoxanthin alone): 7.46 µM; concentration from which compound acts as GR antagonist ([1]; against dexamethasone (FIG. 5)): 30 nM; PR inhibition ([4]; at the highest concentration tested, against R5020): 30%"
